Data as given in US9029384B2, “Phosphatidylinositol 3-kinase inhibitors” (Gilead Calistoga LLC, priority 2012, dated 2015).
Where two headings read alike, the source gives them in different places.

Legend:
PI3Kδ = molecular target: T1, PI3Kδ (Homo sapiens, UniProt O00329); experiment: Enzymatic activity of PI3K isoforms, TR-FRET assay (PIP3 formation); assay type: biochemical
T1 construct: made in house
Method in brief: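 Recombinant heterodimeric class I PI3K; PIP3 product measured by TR-FRET competition with labelled PIP3 for Eu-GRP-1 PH domain. Reaction 30 min at 25 °C, stopped with 10 mM EDTA.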

basophils = experiment: Basophil activation in human whole blood (Flow2 CAST kit, CD63 positive cells); assay type: cell-based; details: Homo sapiens, basophils activated with anti-FcεRI mAb or fMLP, geometric mean
Method in brief: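 Human whole blood (K2-EDTA) preincubated 60 minutes at 37° C with compound serial dilutions or DMSO (0.3% final), then stimulated with anti-FcεRI mAb or fMLP and stained for CD63/CCR3. Percent CD63+ among ≥200 CCR3-high basophils by flow cytometry, normalized to stimulated vehicle as 100%. EC50 from four-parameter fits, geometric means in nM, concentrations corrected for reagent dilution.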

[1] = Hepatocyte stability, 1% final DMSO, 2 μM substrate (t1/2^a); assay type: in vitro ADME; details: human, cryopreserved hepatocytes, TA with 1% final DMSO, 2 μM substrate, samples at 0, 1, 2, 4 hours; read-out: human hepatocyte t½^a
Procedure: This assay was used to evaluate the metabolic stability of test articles (TA) following incubation in cryopreserved hepatocytes by monitoring parent drug disappearance via […]. The TA with 1% final DMSO concentration was incubated with 1 million hepatocytes/ml at 2 μM substrate in duplicate. The incubation was carried out at 37° C. with 5% CO2 and saturating humidity.

[2] = Hepatocyte stability, 0.01% final DMSO, 1 μM substrate (t1/2^b); assay type: in vitro ADME; details: human, hepatocytes, TA with 0.01% final DMSO, 1 μM substrate, samples at 0, 1, 3, 6 hours; read-out: human hepatocyte t½^b
Procedure: Alternatively, assay reagents and/or conditions can be modified in determining the inhibitory activities to PI3K isomers. In additional studies, similar assay using TA and 0.01% final DMSO concentration were incubated with 1 million hepatocytes/mL at 1 μM substrate in duplicate. The incubation was carried out at 37° C. with 5% CO2 and saturating humidity.

[3] = PI3Kδ, TR-FRET, 2×Km ATP, 10 μM PIP2, read-out: IC50

T1 sequence (O00329 whole entry, canonical isoform): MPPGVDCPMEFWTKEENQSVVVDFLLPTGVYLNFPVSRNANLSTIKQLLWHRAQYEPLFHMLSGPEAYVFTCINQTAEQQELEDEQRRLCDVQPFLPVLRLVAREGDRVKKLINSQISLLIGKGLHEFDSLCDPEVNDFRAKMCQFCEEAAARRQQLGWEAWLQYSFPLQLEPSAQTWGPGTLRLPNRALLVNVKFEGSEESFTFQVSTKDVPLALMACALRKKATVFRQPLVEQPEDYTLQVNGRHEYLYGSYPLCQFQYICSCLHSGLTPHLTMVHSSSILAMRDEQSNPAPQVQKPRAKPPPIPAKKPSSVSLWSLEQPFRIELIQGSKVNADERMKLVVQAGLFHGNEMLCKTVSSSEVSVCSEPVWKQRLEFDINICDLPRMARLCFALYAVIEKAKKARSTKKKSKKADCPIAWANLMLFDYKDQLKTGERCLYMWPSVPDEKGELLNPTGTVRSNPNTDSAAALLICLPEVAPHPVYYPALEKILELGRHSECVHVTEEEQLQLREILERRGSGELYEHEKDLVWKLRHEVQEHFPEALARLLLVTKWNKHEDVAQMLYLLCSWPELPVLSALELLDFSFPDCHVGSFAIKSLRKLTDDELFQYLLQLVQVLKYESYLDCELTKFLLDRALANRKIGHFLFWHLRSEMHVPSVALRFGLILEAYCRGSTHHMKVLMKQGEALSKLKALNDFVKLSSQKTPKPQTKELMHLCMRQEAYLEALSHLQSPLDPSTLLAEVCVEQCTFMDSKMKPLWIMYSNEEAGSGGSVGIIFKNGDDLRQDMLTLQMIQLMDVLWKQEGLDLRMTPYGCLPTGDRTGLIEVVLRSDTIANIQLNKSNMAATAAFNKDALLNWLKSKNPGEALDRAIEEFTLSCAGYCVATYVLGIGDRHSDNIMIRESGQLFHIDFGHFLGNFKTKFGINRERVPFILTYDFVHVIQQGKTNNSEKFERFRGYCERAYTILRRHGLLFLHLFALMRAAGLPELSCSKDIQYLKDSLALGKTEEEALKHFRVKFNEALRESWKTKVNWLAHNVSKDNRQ
T1 sequence (P27986 whole entry partner, canonical isoform): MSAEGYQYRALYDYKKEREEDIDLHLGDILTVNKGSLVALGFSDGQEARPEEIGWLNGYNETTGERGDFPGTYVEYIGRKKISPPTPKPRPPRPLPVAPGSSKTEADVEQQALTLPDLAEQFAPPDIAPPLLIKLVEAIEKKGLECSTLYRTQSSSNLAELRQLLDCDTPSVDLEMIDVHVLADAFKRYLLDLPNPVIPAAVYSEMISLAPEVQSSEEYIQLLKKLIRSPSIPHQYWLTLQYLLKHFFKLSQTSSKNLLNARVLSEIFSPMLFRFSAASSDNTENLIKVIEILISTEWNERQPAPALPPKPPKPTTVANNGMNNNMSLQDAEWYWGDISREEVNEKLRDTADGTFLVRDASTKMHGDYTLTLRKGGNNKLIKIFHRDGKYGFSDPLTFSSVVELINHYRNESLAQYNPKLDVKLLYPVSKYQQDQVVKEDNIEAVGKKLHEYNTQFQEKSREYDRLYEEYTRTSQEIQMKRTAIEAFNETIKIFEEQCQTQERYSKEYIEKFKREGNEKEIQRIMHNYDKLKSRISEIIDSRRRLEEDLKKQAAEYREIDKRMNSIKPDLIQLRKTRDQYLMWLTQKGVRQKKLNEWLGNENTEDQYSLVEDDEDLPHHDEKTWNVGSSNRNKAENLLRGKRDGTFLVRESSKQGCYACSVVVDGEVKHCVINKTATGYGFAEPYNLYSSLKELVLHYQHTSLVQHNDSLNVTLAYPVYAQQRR

Compound	IC50 (PI3Kδ; [3]) [nM]	EC50 (basophils) [nM]	half-life at 2 μM [1] [h]	half-life at 1 μM [2] [h]	IC50 (PI3Kδ) [nM]
Cc1cccc2c(=O)n(-c3cc(F)cc(F)c3)c(C(C)Nc3nc(N)nc(N)c3C#N)nc12 (single isomer, unassigned) [Compound 75a]	1 to 10	10 to 50	> 10	–	–
Cc1ccc(Cl)c2c(=O)n(-c3cc(F)cc(F)c3)c(C(C)Nc3nc(N)nc(N)c3C#N)nc12 (single isomer, unassigned) [Compound 73a]	1 to 10	< 1	3 to 6	–	–
Cc1ccc(F)c2nc(C(C)Nc3nc(N)nc(N)c3C#N)n(-c3cc(F)cc(F)c3)c(=O)c12 (single isomer, unassigned) [Compound 25a]	< 1	< 1	1 to 3	–	–
CC(Nc1nc(N)nc(N)c1Cl)c1nc2cccc(Cl)c2c(=O)n1-c1ccccc1 (single isomer, unassigned) [Compound 104a]	–	1 to 10	3 to 6	–	< 1
Cc1cccc2nc(C(C)Nc3nc(N)nc(N)c3C#N)n(-c3cc(F)cc(C#N)c3)c(=O)c12 (single isomer, unassigned) [Compound 24a]	1 to 10	1 to 10	6 to 10	–	–
CC(Nc1nc(N)nc(N)c1C#N)c1nc2cccc(Cl)c2c(=O)n1-c1cc(Cl)cc(Cl)c1 (single isomer, unassigned) [Compound 41a]	1 to 10	10 to 50	3 to 6	–	–
CC(Nc1nc(N)nc(N)c1C#N)c1nc2cccc(F)c2c(=O)n1-c1cccc(C(F)(F)F)c1 (single isomer, unassigned) [Compound 40a]	1 to 10	1 to 10	6 to 10	–	–
CC(Nc1nc(N)nc(N)c1C#N)c1nc2cccc(Cl)c2c(=O)n1-c1cc(F)cc(C#N)c1 (single isomer, unassigned) [Compound 20a]	1 to 10	1 to 10	6 to 10	–	–
CCC(Nc1nc(N)nc(N)c1C#N)c1nc2cccc(C)c2c(=O)n1-c1cc(F)cc(F)c1 (single isomer, unassigned) [Compound 19a]	< 1	1 to 10	3 to 6	–	–
CCC(Nc1nc(N)nc(N)c1C#N)c1nc2c(Cl)cccc2c(=O)n1-c1cc(F)cc(F)c1 (single isomer, unassigned) [Compound 72a]	10 to 50	> 50	6 to 10	–	–
COc1cc(OC)cc(-n2c(C(C)Nc3nc(N)nc(N)c3C#N)nc3cccc(Cl)c3c2=O)c1 (single isomer, unassigned) [Compound 51a]	1 to 10	1 to 10	3 to 6	–	–

More lines, main results first:

IC50 (PI3Kδ; [3]) [nM]	EC50 (basophils) [nM]	half-life at 2 μM [1] [h]	half-life at 1 μM [2] [h]	Compound	IC50 (PI3Kδ) [nM]
1 to 10	1 to 10	1 to 3	–	CC(Nc1nc(N)nc(N)c1C(N)=O)c1nc2cccc(Cl)c2c(=O)n1-c1cccc(C(F)F)c1 (single isomer, unassigned) [Compound 100a]	–
1 to 10	10 to 50	6 to 10	–	CC(Nc1nc(N)nc(N)c1C#N)c1nc2cccc(C(F)F)c2c(=O)n1-c1cc(F)cc(C(F)F)c1 (single isomer, unassigned) [Compound 99a]	–
1 to 10	1 to 10	6 to 10	–	CCC(Nc1nc(N)nc(N)c1C#N)c1nc2cccc(Cl)c2c(=O)n1-c1cc(F)cc(F)c1 (single isomer, unassigned) [Compound 78a]	–
10 to 50	1 to 10	6 to 10	–	CCC(Nc1nc(N)nc(N)c1C#N)c1nc2c(Cl)ccc(F)c2c(=O)n1-c1cc(F)cc(F)c1 (single isomer, unassigned) [Compound 102a]	–
10 to 50	> 50	> 10	–	CCC(Nc1nc(N)nc(N)c1C#N)c1nc2c(C)cccc2c(=O)n1-c1cc(F)cc(F)c1 (single isomer, unassigned) [Compound 76a]	–
1 to 10	1 to 10	–	6 to 10	CCCC(Nc1nc(N)nc(N)c1C#N)c1nc2cccc(F)c2c(=O)n1-c1cc(F)cc(F)c1 (single isomer, unassigned) [Compound 175a]	–
